What was measured:
mice = assay: Passive avoidance response test (memory-improving activity, cycloheximide-treated mice); format: in vivo; conditions: Mus musculus; oral, 15 mice per group, cycloheximide 120 mg/kg s.c., latent time; read-out: Memory-Improving Activity, Minimum Effective Dose
Protocol: Passive avoidance response test was conducted in mice (15 animals per group) using light-dark differential apparatus of step-down type. The apparatus consisted of a dark room made of black and rigid vinylidene chloride resin [30 cm (depth)×30 cm (width)×31 cm (height)] and a light room, as an adjacent room, made of transparent rigid vinylidene chloride resin. The floor of the light room was set 2 cm higher than the grid surface of the dark room (step down type), and there was a guillotine door between the rooms. The animals were placed in the apparatus and acclimatized before test, and latent time for moving from the light room to the dark room was determined.
The acclimatized animals subcutaneously received 120 mg/kg of cycloheximide (Sigma) dissolved in physiological saline. After 30 minutes of the administration, the animals were placed in the light room. Immediatly after the movement of the animals to the dark room, electric current was applied on the grid (0.5 mA, 3 seconds), which gave the animals "aquired behavior". After 24 hours of the establishment of the aquired behavior, a test compound suspended in 1% tragacanth was administered orally to the animals, which were then returned to the light room. Control animals received only 1% tragacanth. The latent time until an individual animal started to move to the dark room was determined.

[1] = tested on: peroxidized lipid in rat brain homogenate; assay: Lipoperoxidation inhibitory activity in brain homogenate (TBA method); format: biochemical, Wistar male rats; conditions: 30 minutes at 37° C., final conc. 0.3-100 μM, read-out: Anti-lipoperoxidation Activity IC50
Protocol: Brain homogenate was prepared using Wistar male rats in accordance with the following procedure. […] A polyethylene tube was inserted into the aorta through the left ventricle, and fixed. Brain perfusion was conducted using ice-cooled 50 mM phosphate buffered saline (PBS), pH 7.4, through the tube, and whole brain was extracted. After removal of the cerebellum, the cerebrum was weighed while wet and homogenated by a Teflon homogenizer under ice-cooling, after addition of nine-fold by weight of PBS. The resultant homogenate was centrifuged at 4° C. (2200 r.p.m., 10 minutes), and an aliquot of the supernatant (0.3 ml) was placed in a light-resistant test tube with ground stopper and used for the following test.
To the brain homogenate obtained above were added PBS (0.6 ml) and an ethanol solution (10 μl) containing a predetermined amount of a test compound. Thus, each of the ethanol solutions was prepared so that the final concentration of the compound was 0.3-100 μM. The mixture was allowed to warm for 30 minutes at 37° C. (external bath temperature). […] (2600 r.p.m., 10 minutes). The resultant supernatant was used in the following quantitative analysis.
The aqueous mixture was heated in a boiling-water bath for 60 minutes and cooled rapidly. Distilled water (1.0 ml) and a mixture of pyridine and butanol (1:15) (5.0 ml) were added to the cooled mixture, and the latter was shaken for 30 seconds and centrifuged (3000 r.p.m., 10 minutes). The supernatant was used as a test sample for quantitative analysis of peroxidized lipid as mentioned below.

Compound	minimal effective dose (mice) [mg/kg]	IC50 [1] [µM]
CCCCCCCCCCCCOc1ccc(-c2c(C)[nH]c(=O)n2C)cc1 [compound 26]	0.1	9.7
CCCCc1ccc(-c2c(CC)[nH]c(=O)n2C)cc1 [compound 3]		13.9
Cc1[nH]c(=O)n(C)c1-c1ccc(CC(C)C)cc1 [compound 5]	30	7.8
Cc1[nH]c(=O)n(C(C)C)c1-c1ccc(C2CCCCC2)cc1 [Compound No. 77, 5-(4'-Cyclohexylphenyl)-1-isopropyl-4-methyl-4-imidazolin-2-one]	0.1	8.3
Cc1[nH]c(=O)n(C)c1-c1ccc(OC(C)C)cc1 [compound 17]		20.4
Cc1[nH]c(=O)n(C)c1-c1ccc(OCCCc2ccccc2)cc1 [compound 30]	30	5.9
CCCCOc1ccccc1-c1c(C)[nH]c(=O)n1C(C)C [compound 80]		25.5
Cc1[nH]c(=O)n(Cc2ccccc2)c1-c1ccc(-c2ccccc2)cc1 [compound 141]	0.1	7.9
CCCCOc1ccc(-c2c(C)[nH]c(=O)n2CC)cc1 [compound 58]	0.3	14.5
CCCCCCCCOc1ccc(-c2c(C)[nH]c(=O)n2C)cc1 [compound 23]	30	4
CCCCCCc1ccc(-c2c(C)[nH]c(=O)n2C)cc1 [Compound No. 1, 1,4-Dimethyl-5-(4'-n-hexylphenyl)-4-imidazolin-2-one]	0.3	9
CCCCn1c(-c2ccccc2)c(C)[nH]c1=O [Compound B, reference compound]		> 100
CCCCCCCCCCCCc1ccc(-c2c(C)[nH]c(=O)n2C)cc1 [Compound No. 13]	3	13
Cc1[nH]c(=O)n(C2CCCCC2)c1-c1ccc(Oc2ccccc2)cc1 [Compound No. 123, 1-Cyclohexyl-4-methyl-5-(4'-phenoxyphenyl)-4-imidazolin-2-one]	0.1	7.9
CCCc1ccc(-c2c(C)[nH]c(=O)n2C)cc1 [Compound No. 7]		21.5
CCCCCCCCCCCCCCc1ccc(-c2c(C)[nH]c(=O)n2C)cc1 [compound 14]	30	43.8
COC1=C(OC)C(=O)C(CCCCCCCCCCO)=C(C)C1=O [Idebenone, reference compound]		17.2
CCCCCCCCCCc1ccc(-c2c(C)[nH]c(=O)n2C)cc1 [Compound No. 12]	0.3	7.9
CCCCCOc1ccc(-c2c(C)[nH]c(=O)n2C)cc1 [compound 19]		4.5

Compound	minimal effective dose (mice) [mg/kg]	IC50 [1] [µM]
Cc1[nH]c(=O)n(C2CCCCC2)c1-c1cccc(OC(C)C)c1 [compound 107]		10.4
Cc1[nH]c(=O)n(C2CCCCC2)c1-c1ccccc1OC(C)C [compound 108]		21.5
Cc1[nH]c(=O)n(C2CCCCC2)c1-c1ccc(OCc2ccccc2)cc1 [Compound No. 124, 5-(4'-Benzyloxyphenyl)-1-cyclohexyl-4-methyl-4-imidazolin-2-one]	0.1	8.3
CSc1ccc(-c2c(C)[nH]c(=O)n2C)cc1 [compound 31]		39.4
Cc1[nH]c(=O)n(C)c1-c1ccc(OCc2ccccc2)cc1 [compound 29]		6.7
CCCCSc1ccc(-c2c(C)[nH]c(=O)n2CC)cc1 [compound 61]		12.9
CCCCc1ccc(-c2c(C)[nH]c(=O)n2C(C)C)cc1 [compound 78]	0.3	10.7
CCCCCCCCCCc1ccc(-c2c(C)[nH]c(=O)n2C2CCCCC2)cc1 [compound 102]		27
Cc1[nH]c(=O)n(C)c1-c1ccc(Oc2ccccc2)cc1 [compound 28]		8.1
CCCCCCCCCCCCCCCCCCOc1ccc(-c2c(C)[nH]c(=O)n2C)cc1 [compound 27]	0.1	
CCCCSc1ccc(-c2c(C)[nH]c(=O)n2C)cc1 [compound 32]	3	11.3
Cc1[nH]c(=O)n(C2CCCCC2)c1-c1ccc(-c2ccccc2)cc1 [Compound No. 93, 1-Cyclohexyl-5-(4-biphenyl)-4-methyl-4-imidazolin-2-one]	0.1	10.9
CCCCOc1cccc(-c2c(C)[nH]c(=O)n2C2CCCCC2)c1 [compound 110]		9
CCCCOc1ccc(-c2c(C)[nH]c(=O)n2Cc2ccccc2)cc1 [compound 142]	0.3	12.8
CCCc1ccc(-c2c(C)[nH]c(=O)n2CC)cc1 [compound 54]		22.6
CCn1c(-c2ccc(OC(C)C)cc2)c(C)[nH]c1=O [compound 60]		39.1
CCCCCCCCc1ccc(-c2c(C)[nH]c(=O)n2C)cc1 [compound 11]	30	19.4
CCCCCCCc1ccc(-c2c(C)[nH]c(=O)n2C)cc1 [compound 10]	30	8.4
CCCCCCOc1ccc(-c2c(C)[nH]c(=O)n2C)cc1 [Compound No. 21]		7.3

Compound	minimal effective dose (mice) [mg/kg]	IC50 [1] [µM]
Cc1[nH]c(=O)n(Cc2ccccc2)c1-c1ccc(C2CCCCC2)cc1 [compound 140]		35.3
CCCc1ccc(-c2c(C)[nH]c(=O)n2C2CCCCC2)cc1 [compound 106]	30	13.9
CCCCCCCCCCOc1ccc(-c2c(C)[nH]c(=O)n2C)cc1 [compound 25]	0.1	6.9
CCCCCc1ccc(-c2c(C)[nH]c(=O)n2C)cc1 [compound 6]		5.9
CCCCCCCCCOc1ccc(-c2c(C)[nH]c(=O)n2C)cc1 [compound 24]		4.8
COc1ccc(-c2c(C)[nH]c(=O)n2C)cc1 [Compound A, reference compound]		147
CCCCCCc1ccc(-c2c(C)[nH]c(=O)n2Cc2ccccc2)cc1 [compound 139]		8.2
CCCCCOc1ccc(-c2c(C)[nH]c(=O)n2C2CCCCC2)cc1 [compound 112]		9.1
CCCCCCCOc1ccc(-c2c(C)[nH]c(=O)n2C)cc1 [compound 22]		5.7
CCCCOc1ccc(-c2c(C)[nH]c(=O)n2C2CCCCC2)cc1 [compound 111]	0.1	13.9
CCCCCCCCCCOc1ccc(-c2c(C)[nH]c(=O)n2C2CCCCC2)cc1 [Compound No. 122, 1-cyclohexyl-5-(4'-decyloxyphenyl)-4-methyl-4-imidazolin-2-one]	0.1	10.5
CCCCc1ccc(-c2c(C)[nH]c(=O)n2CC)cc1 [compound 55]		24.5
Cc1[nH]c(=O)n(C)c1-c1ccc(C(C)(C)C)cc1 [Compound No. 9]		8.4
CCCCCCCCc1ccc(-c2c(C)[nH]c(=O)n2C2CCCCC2)cc1 [compound 101]		10.3
Cc1[nH]c(=O)n(C2CCCCC2)c1-c1ccc(OCCC(C)C)cc1 [compound 94, 1-Cyclohexyl-5-(4'-isoamyloxyphenyl)-4-methyl-4-imidazolin-2-one]		7.2
Cc1[nH]c(=O)n(Cc2ccccc2)c1-c1ccc(C(C)(C)C)cc1 [compound 138]		8.6
CCCCc1ccc(-c2c(CC)[nH]c(=O)n2CC)cc1 [compound 56]		13.9
Cc1[nH]c(=O)n(C)c1-c1ccc(OCCC(C)C)cc1 [Compound No. 20]		6.6

From US5116858A, “4-imidazoline derivatives” (Mitsubishi Kasei Corporation, priority 1989, dated 1992)
